In a melting point compilation (Tetko et al.):

First: CC(=O)C(=Cc1ccccc1)C(=O)OC1CC(C)CCC1C(C)C (stereo not given)
Second: O=C(O)[C@@H]1CCN1C(=O)OCC1c2ccccc2-c2ccccc21
The melting point of the first is lower: 133 °C for the first, 135 °C for the second.

First: N#Cc1c(N)cc(N)nc1Br
Second: N#Cc1ccc(N)c(Br)c1
The melting point of the first is higher: 257 °C for the first, 106 to 111 °C for the second.

Going from `O=CN(O)CC(=O)O` to `O=C(O)CC1CCCCC1`, the melting point falls from 120 °C to 33 °C.

Going from `CCCCCCCCc1ccc(NC(=O)c2ccc(CC)cc2)cc1` to `CCCCCCCCCCCCCC(=O)Oc1ccc(N=Cc2ccc(N(C)C)cc2)cc1`, the melting point falls from 109 °C to 106 °C.

Compared with `O=C1c2ccccc2C(O)(O)C1(O)C1(O)C(=O)c2ccccc2C1(O)O` (stereo not given), `O=C1OC(c2ccc(O)c3ccccc23)(c2ccc(O)c3ccccc23)c2ccccc21` is higher in melting point: 240 °C for the first, 254 °C for the second.

Compared with `CC(C)(C)OC(=O)N1CCN(c2ccc(CN)cc2)CC1`, `CC(C)(C)OC(=O)N1CCN(c2ccc(CO)cc2)CC1` is higher in melting point: 83 to 87 °C for the first, 109 to 111 °C for the second.

First: Cn1c(=O)oc(=O)c2ccccc21
Second: O=C(O)c1[nH]c2ccccc2c1Br
The melting point of the first is lower: 165 °C for the first, 185 to 188 °C for the second.

Going from `c1ccc(Sc2ccccc2)cc1` to `c1ccc(Cc2ccccc2)cc1`, the melting point rises from -40 °C to 25.2 °C.

Compared with `NC=NO`, `N#CC(=CN)S(=O)(=O)c1ccc(Cl)cc1` is higher in melting point: 114 °C for the first, 213 to 214 °C for the second.

First: COc1ccc(C(=O)c2ccc(OC)cc2)cc1
Second: COc1ccc(C(=O)C(O)c2ccc(OC)cc2)cc1 (stereo not given)
The melting point of the first is higher: 144 °C for the first, 112 °C for the second.

First: O=C1CCC2(CC1)OCCO2
Second: C[Si](C)(C)C1=CC2CCCCC2C1=O (stereo not given)
The melting point of the first is higher: 74 to 76 °C for the first, 59 °C for the second.

Compared with `O=C1NN(c2ccccc2)C(=O)C1(Br)Br`, `O=C(O)c1cnn(-c2ccccc2)c1C(F)(F)F` is higher in melting point: 119 °C for the first, 139 to 141 °C for the second.

First: O=c1cc(C(F)(F)F)c2cc3c4c(c2o1)CCCN4CCC3
Second: Oc1cccc2c1CCCC2
The melting point of the first is higher: 167 to 168 °C for the first, 70 °C for the second.

Compared with `COc1cc2c(cc1OCc1ccccc1)C(CC(C)C)N(Oc1c([N+](=O)[O-])cc([N+](=O)[O-])cc1[N+](=O)[O-])CC2` (stereo not given), `O=C(NCCc1cc([N+](=O)[O-])c(CCNC(=O)c2ccccc2)c([N+](=O)[O-])c1)c1ccccc1` is higher in melting point: 173 °C for the first, 217 °C for the second.

Compared with `Clc1ccc2nc(Cl)sc2c1`, `Fc1cc2nc(S)[nH]c2cc1Cl` is higher in melting point: 96 °C for the first, 298 to 301 °C for the second.

Compared with `COc1cc([N+](=O)[O-])ccc1O`, `COc1cc([N+](=O)[O-])ccc1C` is lower in melting point: 99 to 104 °C for the first, 69 to 74 °C for the second.

Going from `c1ccc(C2=NC(c3ccccc3)C(c3ccccc3)N2)cc1` (stereo not given) to `CCOC(=O)/C=C/[C@@H]1[C@@H](c2ccccc2)N1C(=O)c1ccccc1`, the melting point falls from 134 °C to 118 °C.

First: COc1cccc(OCc2ccccc2Cl)c1C#N
Second: COc1cc(C=NNC(=O)CCn2c(C)nc3ccccc32)ccc1O
The melting point of the first is lower: 152 to 154 °C for the first, 230 °C for the second.

Going from `FC(F)(F)c1ccccc1-n1ccnc1` to `FC(F)(F)c1cc2ccccc2cn1`, the melting point falls from 52 °C to 31 °C.

First: O=C(O)CCc1cc2c(cc1[N+](=O)[O-])CCC(=O)N2
Second: O=[N+]([O-])c1ccc(Br)c([N+](=O)[O-])c1
The melting point of the first is higher: 258 °C for the first, 72 °C for the second.

Compared with `Cc1ccc(OCC(=O)NN)c2c1CCC2`, `Cc1ccc(C(=O)CCCCl)cc1C` is lower in melting point: 145 to 156 °C for the first, 46 to 49 °C for the second.

First: N#CC1CN(C(c2ccccc2)c2ccccc2)C1
Second: O=C(c1ccc(Cl)cc1)C(Br)c1ccccc1 (stereo not given)
The melting point of the first is higher: 153 to 156 °C for the first, 65 to 66 °C for the second.

First: CCCCCCOC(=O)CCCC
Second: CCCCCCCCCC(=O)CCCCCCCCC
The melting point of the first is lower: -63.1 °C for the first, 65.5 °C for the second.

First: N#CC(=O)c1ccccc1
Second: ON=C(c1ccccc1)c1ccc(Cl)cc1
The melting point of the first is lower: 32.5 °C for the first, 133 °C for the second.

First: CCOC(=O)C1=NN(c2ccccc2)C(=O)C1=CC1C(=O)N(c2ccccc2)N=C1C(=O)OCC (stereo not given)
Second: CCOC(=O)c1c(SC)nn(C(=O)Cc2ccccc2)c1N
The melting point of the first is higher: 179 to 180 °C for the first, 120 °C for the second.

First: CCOC(=O)c1c(C)n[nH]c1C
Second: CCOC(=O)c1csc(-c2ccc(Br)s2)n1
The melting point of the first is higher: 118 to 119 °C for the first, 97 to 101 °C for the second.

First: OCC(O)CC(F)(F)C(F)(F)C(F)(F)C(F)(F)C(F)(F)C(F)(F)C(F)(F)C(F)(F)F (stereo not given)
Second: FC(F)(F)C(F)(F)C(F)(F)C(F)(F)C(F)(F)C(F)(F)C(F)(F)C(F)(F)C(F)(F)C(F)(F)I
The melting point of the first is higher: 114 to 116 °C for the first, 66 °C for the second.

First: O=C(COc1ncn(-c2ccc(Cl)cc2)n1)NNC(=S)Nc1ccc(F)cc1
Second: Cc1c(C(=O)O)cnn1-c1ccc(F)cc1
The melting point of the first is higher: 181 to 183 °C for the first, 165 to 166 °C for the second.

Compared with `CN1CCNCC1`, `c1cc2occc2c(N2CCNCC2)n1` is higher in melting point: -6 °C for the first, 58 to 60 °C for the second.

First: O=C(O)COc1ccccc1Br
Second: CC1(c2ccccc2)OC(C(=O)O)=CC1=O (stereo not given)
The melting point of the first is lower: 141 to 145 °C for the first, 176 °C for the second.

Going from `Cc1ccc(CBr)cc1` to `CCOc1ccc(C(N)=O)cc1`, the melting point rises from 35 °C to 209 °C.

First: CCOC(O)C(Cl)(Cl)Cl (stereo not given)
Second: FC(F)(Cl)C(Cl)(Cl)Cl
The melting point of the first is higher: 56.5 °C for the first, 40.6 °C for the second.

Compared with `CC(C)(C(=O)c1cccnc1)c1cccnc1`, `O=Cc1ccc(-c2cncc(C(=O)O)c2)cc1` is higher in melting point: 50.5 °C for the first, 231 to 234 °C for the second.

First: COC(=O)c1scc(C)c1N=C=S
Second: Cc1cc(N)ccc1N
The melting point of the first is lower: 58 to 60 °C for the first, 64 °C for the second.

Compared with `O=C(O)c1cc(S(=O)(=O)Cl)ccc1O`, `O=[N+]([O-])c1ccccc1S(=O)(=O)Cl` is lower in melting point: 168 to 170 °C for the first, 67 °C for the second.

First: c1ccc2cc(P(c3ccc4ccccc4c3)c3ccc4ccccc4c3)ccc2c1
Second: Cc1ccc2cc3c(ccc4ccccc43)cc2c1
The melting point of the first is higher: 228 °C for the first, 152 °C for the second.

Compared with `O=CC(F)(F)C(F)(F)C(F)(F)C(F)(F)C(F)(F)C(F)(F)C(F)(F)C(F)(F)Cl`, `O=S(=O)(Nc1ccc(F)cc1C(F)(F)F)C(F)(F)F` is higher in melting point: 36 to 38 °C for the first, 45 °C for the second.

First: CNC1CCC2(C)C(CCC3C2CCC2(C)C3CCC2C(C)N(C)C)C1 (stereo not given)
Second: COc1ccc(C2=CCC3(C)C(CCC4C5CCC(O)C5(C)CCC43)C2)cc1 (stereo not given)
The melting point of the first is higher: 172 °C for the first, 163 to 169 °C for the second.

First: CCCC(=O)N(CSP(=S)(OC)OC)c1ccccc1Cl
Second: NNC(=O)CSc1ccccc1[N+](=O)[O-]
The melting point of the first is lower: 42 °C for the first, 161 to 171 °C for the second.

Going from `CC(=O)Nc1cc([N+](=O)[O-])ccc1Nc1ccc(C)cc1` to `O=C1C(c2cccc3ccccc23)=[N+]([O-])c2cc([N+](=O)[O-])ccc21`, the melting point rises from 176 °C to 223 °C.

First: COC(=O)c1ccc(N2CCN(C(=O)OC(C)(C)C)CC2)cc1
Second: O=C(O)c1ccc(-n2ccc(C(F)(F)F)n2)cc1
The melting point of the first is lower: 166 to 167 °C for the first, 189 to 190 °C for the second.

First: O=C(O)C1(C(F)(F)F)CCCC1
Second: N#CCC(=O)N1CCCCC1
The melting point of the first is lower: 37 °C for the first, 88 °C for the second.

Compared with `CC1CC=C/C1=N\Nc1ccc([N+](=O)[O-])cc1[N+](=O)[O-]` (stereo not given), `O=[N+]([O-])c1cccc2cc[nH]c12` is lower in melting point: 180 °C for the first, 95 to 98 °C for the second.

First: O=C(Cc1ccccc1)CC(c1ccco1)N1CCCCC1 (stereo not given)
Second: CC(=O)c1ccc(CCc2ccccc2)cc1
The melting point of the first is higher: 130 °C for the first, 68 to 70 °C for the second.

Compared with `C=C(Cl)C#N`, `N#CC1CCCC1` is lower in melting point: -65 °C for the first, -76 °C for the second.

Compared with `COC1=C(OC)C(C(CBr)OC(C)=O)OC1=O` (stereo not given), `COc1ccc2c(c1)CC2O` (stereo not given) is lower in melting point: 74 °C for the first, 39 to 41 °C for the second.

Compared with `O=c1ccoc2ccc(Br)cc12`, `CC(=O)Nc1ccc(Br)c(F)c1` is higher in melting point: 141 °C for the first, 151 °C for the second.

First: CCOP(=O)(OCC)Oc1c2cc(C(C)(C)C)cc1Cc1cc(C(C)(C)C)cc(c1O)Cc1cc(C(C)(C)C)cc(c1OP(=O)(OCC)OCC)Cc1cc(C(C)(C)C)cc(c1O)C2
Second: CCOP(=S)(OCC)SCSP(=S)(OCC)OCC
The melting point of the first is higher: 203 to 205 °C for the first, -12 °C for the second.

First: COc1ccc(Nc2ccc(OC)cc2)cc1
Second: O=C(Cl)c1cccnc1Oc1ccc(Cl)cc1
The melting point of the first is higher: 102 °C for the first, 79 to 80 °C for the second.

First: Clc1ccc(-n2cccc2)cc1
Second: CN=C1CN(O)C(c2ccccc2)=c2cc(Cl)ccc2=N1
The melting point of the first is lower: 88 to 91 °C for the first, 236 °C for the second.

First: O=c1c(Cl)c[nH]cc1Cl
Second: O=C(Cl)c1cc(-c2cccs2)on1
The melting point of the first is higher: 322 °C for the first, 77 to 78 °C for the second.

First: c1c2c(cc3c1CC3)CC2
Second: O=C(ON1C(=O)CCC1=O)ON1C(=O)CCC1=O
The melting point of the first is lower: 101 °C for the first, 190 °C for the second.

First: O=C(Oc1ccc(Cl)cc1Cl)c1ccc(C(=O)Oc2ccc(Cl)cc2Cl)cc1
Second: Cn1ccc(-c2ccc(C(=O)Oc3c(F)c(F)c(F)c(F)c3F)cc2)n1
The melting point of the first is higher: 217 °C for the first, 122 to 124 °C for the second.

First: COc1ccc(N)cc1C(F)(F)F
Second: Cc1nc(-c2cccc(N)c2)no1
The melting point of the first is lower: 59 °C for the first, 95 to 96 °C for the second.

Going from `O=S(=O)(Cl)C(Cl)(Cl)Cl` to `CC(C)(C)C(=O)Nc1ncccc1C(=O)O`, the melting point rises from 140 °C to 280 °C.

First: CNC(c1cccc(C(F)(F)F)c1)C(NC)c1cccc(C(F)(F)F)c1 (stereo not given)
Second: Cc1n[nH]c(C)c1/C=C/c1ccccc1
The melting point of the first is lower: 113 to 115 °C for the first, 184 °C for the second.

First: CCCCN(CCCC)CCCN
Second: CCc1cccc(CC)c1NC(=O)CN(CC(=O)O)CC(=O)O
The melting point of the first is lower: -50 °C for the first, 187 to 190 °C for the second.

First: CC12CCC3C4CCC(=O)C=C4CCC3C1CCC2OC(=O)CCc1ccccc1 (stereo not given)
Second: OC12CCCCC1c1ccccc12 (stereo not given)
The melting point of the first is higher: 118 °C for the first, 112 °C for the second.

Compared with `CC(C)NCC(O)c1cc(O)cc(O)c1` (stereo not given), `C=C(Br)CC1(C(C)C)C(=O)NC(=O)NC1=O` is higher in melting point: 100 °C for the first, 177 °C for the second.

`O=C1c2ccccc2C2NCCCN12` (stereo not given) and `N=c1sc(C(=O)c2cccs2)nn1-c1ccncc1` cannot be ordered by melting point: 130 to 132 °C for the first, 131 °C for the second.

First: CC1C(=O)C23C(O)CC4C(C)(C)CCC(O)C4(C)C2C(O)CC1C3O (stereo not given)
Second: O=c1cnn(C2OC(CO)C(O)C2O)c(=O)[nH]1 (stereo not given)
The melting point of the first is higher: 282 °C for the first, 158 °C for the second.

Compared with `O=C(O)CSc1ncccn1`, `CCc1nc(N)nc(O)c1C` is higher in melting point: 200 to 203 °C for the first, 303 to 304 °C for the second.

`CCOP(=O)(N=C1SCCS1)OCC` gave a melting point of 41 °C.
